In US20250049970A1, “DLL3 TARGETING PEPTIDES AND CONSTRUCTS THEREOF” (MARIANA ONCOLOGY INC., priority 2023, published 2025):
pKd: −log10 of the molar value. *1 amine or outer side, *2 acyl side, *3 side chain or, on linkers, in order; H or OH if unused. Where a SMILES comes first, the peptide text is derived from it. Bridges are numbered along the chain shown (N, C = ends). [ ]: non-standard residue; d: D form. The star is where a group is joined. Ala(piperidin-4-yl) = O=C([C@H](CC1CCN([*:3])CC1)N[*:1])[*:2]; DOTA = O=C(O)CN1CCN(CC(=O)O)CCN(CC(=O)*)CCN(CC(=O)O)CC1; Trp(7-OMe) = COc1cccc2c(C[C@H](N)C(=O)O)c[nH]c12; Trp(7-Me) = Cc1cccc2c(C[C@H](N)C(=O)O)c[nH]c12; NMeW = CN[C@@H](Cc1c[nH]c2ccccc12)C(=O)O; 2Nal = N[C@@H](Cc1ccc2ccccc2c1)C(=O)O; mXylylene = c1cc(C[*:1])cc(C[*:2])c1; oXylylene = c1ccc(C[*:2])c(C[*:1])c1; NMeH = CN[C@@H](Cc1c[nH]cn1)C(=O)O; NMeD = CN[C@@H](CC(=O)O)C(=O)O; NMeN = CN[C@@H](CC(N)=O)C(=O)O; Chg = N[C@H](C(=O)O)C1CCCCC1; NMeNle = CCCC[C@H](NC)C(=O)O; CH2 = C([*:1])[*:2]

Biological target: T1, DLL3 (Homo sapiens, UniProt Q9NYJ7)
T1 sequence (Q9NYJ7 27-618): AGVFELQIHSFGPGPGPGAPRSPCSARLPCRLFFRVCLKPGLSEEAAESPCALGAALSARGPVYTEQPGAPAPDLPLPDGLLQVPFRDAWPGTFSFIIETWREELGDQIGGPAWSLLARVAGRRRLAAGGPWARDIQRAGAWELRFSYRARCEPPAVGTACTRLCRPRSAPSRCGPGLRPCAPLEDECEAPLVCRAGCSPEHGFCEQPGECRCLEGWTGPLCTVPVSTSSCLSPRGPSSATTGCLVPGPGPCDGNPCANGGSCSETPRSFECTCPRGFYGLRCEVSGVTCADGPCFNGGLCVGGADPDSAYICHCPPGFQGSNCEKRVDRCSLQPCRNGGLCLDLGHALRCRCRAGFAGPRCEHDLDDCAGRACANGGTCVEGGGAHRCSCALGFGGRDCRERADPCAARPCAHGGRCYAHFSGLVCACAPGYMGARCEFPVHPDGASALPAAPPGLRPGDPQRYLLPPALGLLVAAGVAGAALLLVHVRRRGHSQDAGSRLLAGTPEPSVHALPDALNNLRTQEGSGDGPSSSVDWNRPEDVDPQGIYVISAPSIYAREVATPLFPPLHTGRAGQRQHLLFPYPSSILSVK
Test: SPR KD, biotinylated human DLL3 on streptavidin chip (Table 8)
Parameters: biotin (biotinylated)
Details: biotinylated human DLL3 on streptavidin sensor chip, 25° C., 1:1 binding model; read-out: SPR KD
Text: Biotinylated target ligand human DLL3 was immobilized on a streptavidin sensor chip. A reference surface was set up for nonspecific binding and refractive index changes. […] Sensorgram curves were fitted with 1:1 binding model, and affinity and kinetic parameters were obtained using Biacore Insight evaluation 4.0. software.

Compound | pKd
CC[C@H](C)[C@H](NC(=O)[C@@H](NC(=O)[C@H](Cc1c[nH]c2ccccc12)NC(C)=O)[C@@H](C)O)C(=O)N[C@H]1CSSC[C@@H](C(=O)N[C@@H](Cc2c[nH]c3ccccc23)C(=O)N2CCC[C@H]2C(=O)O)NC(=O)[C@H](CC(=O)O)NC(=O)[C@H](Cc2c[nH]cn2)NC(=O)[C@H](Cc2c[nH]c3ccccc23)NC(=O)[C@H](CC(N)=O)N(C)C(=O)[C@H](CC(N)=O)NC1=O [compound 385, Ac-W-T-I-C(3)-N-(NmeN)-W-H-D-C(3)-W-P-CONH2] (Ac-WTICN[NMeN]WHDCWP-OH; disulfide 4-10) | 7.00 to 8.00
CC[C@H](C)[C@H](NC(=O)[C@@H](NC(=O)[C@H](Cc1c[nH]c2ccccc12)NC(C)=O)[C@@H](C)O)C(=O)N[C@H]1CSSC[C@@H](C(=O)N[C@@H](Cc2c[nH]c3ccccc23)C(=O)N2CCC[C@H]2C(=O)O)NC(=O)[C@H](CC(=O)O)NC(=O)[C@H](Cc2c[nH]cn2)NC(=O)[C@H](Cc2c[nH]c3ccccc23)N(C)C(=O)[C@H](CC(N)=O)NC(=O)[C@H](CC(N)=O)NC1=O [compound 386, Ac-W-T-I-C(3)-N-N-(NmeW)-H-D-C(3)-W-P-CONH2] (Ac-WTICNN[NMeW]HDCWP-OH; disulfide 4-10) | 6.52 to 7.00
CC[C@H](C)[C@H](NC(=O)[C@@H](NC(=O)[C@H](Cc1c[nH]c2ccccc12)NC(C)=O)[C@@H](C)O)C(=O)N[C@H]1CSSC[C@@H](C(=O)N[C@@H](Cc2c[nH]c3ccccc23)C(=O)N2CCC[C@H]2C(N)=O)NC(=O)[C@H](CC(=O)O)NC(=O)[C@H](Cc2cnc[nH]2)N(C)C(=O)[C@H](Cc2c[nH]c3ccccc23)NC(=O)[C@H](CC(N)=O)NC(=O)[C@H](CC(N)=O)NC1=O [compound 387, Ac-W-T-I-C(3)-N-N-W-(NmeH)-D-C(3)-W-P-CONH2] (Ac-WTICNNW[NMeH]DCWP-NH2; disulfide 4-10) | 7.00 to 8.00
CC[C@H](C)[C@H](NC(=O)[C@@H](NC(=O)[C@H](Cc1c[nH]c2ccccc12)NC(C)=O)[C@@H](C)O)C(=O)N[C@H]1CSSC[C@@H](C(=O)N[C@@H](Cc2c[nH]c3ccccc23)C(=O)N2CCC[C@H]2C(N)=O)NC(=O)[C@H](CC(=O)O)N(C)C(=O)[C@H](Cc2cnc[nH]2)NC(=O)[C@H](Cc2c[nH]c3ccccc23)NC(=O)[C@H](CC(N)=O)NC(=O)[C@H](CC(N)=O)NC1=O [compound 388, Ac-W-T-I-C(3)-N-N-W-H-(NmeD)-C(3)-W-P-CONH2] (Ac-WTICNNWH[NMeD]CWP-NH2; disulfide 4-10) | 6.52 to 7.00
CC[C@H](C)[C@H](NC(=O)[C@@H](NC(=O)[C@H](Cc1c[nH]c2ccccc12)NC(C)=O)[C@@H](C)O)C(=O)N[C@H]1CSSC[C@@H](C(=O)N(C)[C@@H](Cc2c[nH]c3ccccc23)C(=O)N2CCC[C@H]2C(=O)O)NC(=O)[C@H](CC(=O)O)NC(=O)[C@H](Cc2c[nH]cn2)NC(=O)[C@H](Cc2c[nH]c3ccccc23)NC(=O)[C@H](CC(N)=O)NC(=O)[C@H](CC(N)=O)NC1=O [compound 389, Ac-W-T-I-C(3)-N-N-W-H-D-C(3)-(NmeW)-P-CONH2] (Ac-WTICNNWHDC[NMeW]P-OH; disulfide 4-10) | 6.52 to 7.00
CC(=O)N[C@@H](Cc1c[nH]c2ccccc12)C(=O)N[C@H](C(=O)N[C@H](C(=O)N[C@H]1CSCSC[C@@H](C(=O)N[C@@H](Cc2c[nH]c3ccccc23)C(=O)N2CCC[C@H]2C(N)=O)NC(=O)[C@H](CC(=O)O)NC(=O)[C@H](CCCCNC(=O)CN2CCN(CC(=O)O)CCN(CC(=O)O)CCN(CC(=O)O)CC2)NC(=O)[C@H](Cc2ccc3ccccc3c2)NC(=O)[C@H](CC(N)=O)NC(=O)[C@H](CC2CCNCC2)NC1=O)C1CCCCC1)[C@@H](C)O [compound 398, Ac-W-T-(Chg)-C(1)-[3-(4-piperidinyl)-Ala]-N-(2Nal)-Lys(DOTA)-D-C(1)-W-P-CONH2] (Ac-WT[Chg]C[Ala(piperidin-4-yl)]N[2Nal]K(DOTA)DCWP-NH2; linker 4-10 via CH2) | > 9.00
CC(=O)N[C@@H](Cc1c[nH]c2ccccc12)C(=O)N[C@H](C(=O)N[C@H](C(=O)N[C@H]1CSCSC[C@@H](C(=O)N[C@@H](Cc2c[nH]c3ccccc23)C(=O)N2CCC[C@H]2C(N)=O)NC(=O)[C@H]([C@@H](C)O)NC(=O)[C@H](CCCCNC(=O)CN2CCN(CC(=O)O)CCN(CC(=O)O)CCN(CC(=O)O)CC2)NC(=O)[C@H](Cc2ccc3ccccc3c2)NC(=O)[C@H](CC(N)=O)NC(=O)[C@H](CC2CCNCC2)NC1=O)C1CCCCC1)[C@@H](C)O [compound 399, Ac-W-T-(Chg)-C(1)-[3-(4-piperidinyl)-Ala]-N-(2Nal)-Lys(DOTA)-(Thr)-C(1)-W-P-CONH2] (Ac-WT[Chg]C[Ala(piperidin-4-yl)]N[2Nal]K(DOTA)TCWP-NH2; linker 4-10 via CH2) | > 9.00
CCCC[C@@H](C(=O)N[C@H]1CSCSC[C@@H](C(=O)N[C@@H](Cc2c[nH]c3ccccc23)C(=O)N2CCC[C@H]2C(N)=O)NC(=O)[C@H](CC(=O)O)NC(=O)[C@H](CCCCNC(=O)CN2CCN(CC(=O)O)CCN(CC(=O)O)CCN(CC(=O)O)CC2)NC(=O)[C@H](Cc2ccc3ccccc3c2)NC(=O)[C@H](CC(N)=O)NC(=O)[C@H](CC2CCNCC2)NC1=O)N(C)C(=O)[C@@H](NC(=O)[C@H](Cc1c[nH]c2ccccc12)NC(C)=O)[C@@H](C)O [compound 400, Ac-W-T-(NMe-Nle)-C(1)-[3-(4-piperidinyl)-Ala]-N-(2Nal)-Lys(DOTA)-D-C(1)-W-P-CONH2] (Ac-WT[NMeNle]C[Ala(piperidin-4-yl)]N[2Nal]K(DOTA)DCWP-NH2; linker 4-10 via CH2) | > 9.00
CC(=O)N[C@@H](Cc1c[nH]c2ccccc12)C(=O)N[C@H](C(=O)N[C@H](C(=O)N[C@H]1CSCc2ccccc2CSC[C@@H](C(=O)N[C@@H](Cc2c[nH]c3ccccc23)C(=O)N2CCC[C@H]2C(N)=O)NC(=O)[C@H](CC(=O)O)NC(=O)[C@H](CCCCNC(=O)CN2CCN(CC(=O)O)CCN(CC(=O)O)CCN(CC(=O)O)CC2)NC(=O)[C@H](Cc2ccc3ccccc3c2)NC(=O)[C@H](CC(N)=O)NC(=O)[C@H](CC2CCNCC2)NC1=O)C1CCCCC1)[C@@H](C)O [compound 401, Ac-W-T-(Chg)-C(oDBX)-[3-(4-piperidinyl)-Ala]-N-(2Nal)-Lys(DOTA)-D-C(3)-W-P-CONH2] (Ac-WT[Chg]C[Ala(piperidin-4-yl)]N[2Nal]K(DOTA)DCWP-NH2; linker 4-10 via oXylylene) | 8.00 to 9.00
CC(=O)N[C@@H](Cc1c[nH]c2ccccc12)C(=O)N[C@H](C(=O)N[C@H](C(=O)N[C@H]1CSCc2cccc(c2)CSC[C@@H](C(=O)N[C@@H](Cc2c[nH]c3ccccc23)C(=O)N2CCC[C@H]2C(N)=O)NC(=O)[C@H](CC(=O)O)NC(=O)[C@H](CCCCNC(=O)CN2CCN(CC(=O)O)CCN(CC(=O)O)CCN(CC(=O)O)CC2)NC(=O)[C@H](Cc2ccc3ccccc3c2)NC(=O)[C@H](CC(N)=O)NC(=O)[C@H](CC2CCNCC2)NC1=O)C1CCCCC1)[C@@H](C)O [compound 402, Ac-W-T-(Chg)-C(mDBX)-[3-(4-piperidinyl)-Ala]-N-(2Nal)-Lys(DOTA)-D-C(3)-W-P-CONH2] (Ac-WT[Chg]C[Ala(piperidin-4-yl)]N[2Nal]K(DOTA)DCWP-NH2; linker 4-10 via mXylylene) | 6.52 to 7.00
CC(=O)N[C@@H](Cc1c[nH]c2c(C)cccc12)C(=O)N[C@H](C(=O)N[C@H](C(=O)N[C@H]1CSSC[C@@H](C(=O)N[C@@H](Cc2c[nH]c3ccccc23)C(=O)N2CCC[C@H]2C(N)=O)NC(=O)[C@H](CC(=O)O)NC(=O)[C@H](CCCCNC(=O)CN2CCN(CC(=O)O)CCN(CC(=O)O)CCN(CC(=O)O)CC2)NC(=O)[C@H](Cc2ccc3ccccc3c2)NC(=O)[C@H](CC(N)=O)NC(=O)[C@H](CC2CCNCC2)NC1=O)C1CCCCC1)[C@@H](C)O [compound 404, Ac-(7Me-Trp)-T-(Chg)-C(3)-[3-(4-piperidinyl)-Ala]-N-(2Nal)-Lys(DOTA)-D-C(3)-W-P-CONH2] (Ac-[Trp(7-Me)]T[Chg]C[Ala(piperidin-4-yl)]N[2Nal]K(DOTA)DCWP-NH2; disulfide 4-10) | > 9.00
COc1cccc2c(C[C@H](NC(C)=O)C(=O)N[C@H](C(=O)N[C@H](C(=O)N[C@H]3CSSC[C@@H](C(=O)N[C@@H](Cc4c[nH]c5ccccc45)C(=O)N4CCC[C@H]4C(N)=O)NC(=O)[C@H](CC(=O)O)NC(=O)[C@H](CCCCNC(=O)CN4CCN(CC(=O)O)CCN(CC(=O)O)CCN(CC(=O)O)CC4)NC(=O)[C@H](Cc4ccc5ccccc5c4)NC(=O)[C@H](CC(N)=O)NC(=O)[C@H](CC4CCNCC4)NC3=O)C3CCCCC3)[C@@H](C)O)c[nH]c12 [compound 405, Ac-(7MeO-Trp)-T-(Chg)-C(3)-[3-(4-piperidinyl)-Ala]-N-(2Nal)-Lys(DOTA)-D-C(3)-W-P-CONH2] (Ac-[Trp(7-OMe)]T[Chg]C[Ala(piperidin-4-yl)]N[2Nal]K(DOTA)DCWP-NH2; disulfide 4-10) | > 9.00
